Reference: US20260206761A1, “HETEROARYL-TRIAZOLE COMPOUNDS AS PESTICIDES” (Bayer Aktiengesellschaft, priority 2019, published 2026)

Key:
Format in all cases: in vivo
[1] = tested on: adult engorged female ticks (Rhipicephalus microplus); experiment: Rhipicephalus (Boophilus) microplus injection test; settings: 168 h, egg deposition after 7 days, read-out: activity (efficacy: infertile eggs); for pest or weed control at 4 pg: application rate 4 pg/animal; for pest or weed control at 0.02 mg: application rate 20 μg/animal
In short: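 Compound in DMSO (10 mg per 0.5 mL, then diluted with DMSO to test concentration); 1 μL injected into the abdomen of each of five engorged females, then held in a climate chamber. Fertile egg deposition checked at 7 days; efficacy 100% = all eggs infertile, 0% = all fertile.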

[2] = tested on: Aedes aegypti strain MONHEIM; experiment: Aedes aegypti test (AEDSAE surface treatment & contact assay); settings: 24 hours after contact, read-out: efficacy (mortality); for mortality at 4 mg/m2: surface concentration 4 mg/m^2, exposure 30 minutes; for mortality at 20 mg/m2: surface concentration 20 mg/m^2, exposure 30 minutes
In short: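 Percent mortality was read 24 h after adult MONHEIM mosquitoes were held for 30 min on a tile treated with compound. Compound applied from acetone solution (2 mg/ml) containing 2000 ppm rapeseed oil methyl ester, after evaporation.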

[3] = tested on: green peach aphid (Myzus persicae); experiment: Myzus persicae oral test; settings: 120 h, application rate 4 ppm, after 5 days
In short: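 Five-day oral feeding assay measuring percent mortality of a mixed aphid population that draws compound-containing sugared IPL41 medium through sealing parafilm; the test preparation derives from 1 part compound per 100 parts acetone, diluted with water.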

[4] = tested on: fall armyworm larvae (Spodoptera frugiperda); experiment: Spodoptera frugiperda spray test; settings: 168 h, read-out: activity (mortality)
In short: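 Larvae of fall armyworm placed on dried maize leaf sections previously sprayed with emulsified compound (acetone/DMF solvent, water with 1000 ppm emulsifier). Percent of caterpillars killed recorded on day 7, 0–100% scale.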

[5] = tested on: adult cat fleas (Ctenocephalides felis); experiment: Ctenocephalides felis in-vitro contact test, adult cat flea; settings: application rate 5 μg/cm^2 (=500 g/ha), after 48 hours, read-out: activity (efficacy: fleas dead or moribund)
In short: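 Efficacy, as % of fleas dead or moribund, was read 48 h after 5-10 adult cat fleas were confined in glass tubes whose walls carried dried compound film (900 ppm, […]). Fleas failing to escape upward from a 45-50° C plate within 5 min counted as dead or moribund.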

[6] = tested on: larvae of the banded cucumber beetle (Diabrotica balteata); experiment: Diabrotica balteata spray test; settings: 168 h, after 7 days, read-out: activity (efficacy: seedlings grown); for pest or weed control at 100 g/ha: application rate 100 g/ha (=32 pg/well); for pest or weed control at 500 g/ha: application rate 500 g/ha (=160 pg/well)
In short: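 Read-out is % efficacy at day 7, 0% meaning no seedling growth and 100% growth equal to uninfested untreated controls. Test solutions (acetone/DMF concentrate diluted with water carrying 1000 ppm emulsifier) were sprayed onto 1-day-germinated wheat seeds, 5 per well, before infestation with 10-20 larvae.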

[7] = tested on: adult unfed cat fleas (Ctenocephalides felis); experiment: Ctenocephalides felis oral test; settings: 48 h, read-out: activity (mortality)
In short: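 About 20 adult unfed fleas fed through parafilm on cattle blood containing compound (DMSO stock diluted in blood), blood held at 37 °C and fleas at room temperature. Mortality (%) scored after 2 days.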

[8] = tested on: green peach aphid (Myzus persicae); experiment: Myzus persicae spray test; settings: 120 h, after 5 days; for mortality at 100 g/ha: application rate 100 g/ha; for mortality at 500 g/ha: application rate 500 g/ha
In short: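 Chinese cabbage leaf disks carrying all instars of M. persicae sprayed with compound in acetone/DMF, diluted in water with 1000 ppm alkylarylpolyglycol ether emulsifier. Percent mortality scored after 5 days (100% = all aphids killed).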

| SMILES | pest or weed control at 4 pg [1] | pest or weed control at 0.02 mg [1] | mortality at 4 mg/m2 [2] | mortality at 20 mg/m2 [2] | mortality at 4 ppm [3] | mortality at 100 g/ha [4] | mortality at 500 g/ha [4] | pest or weed control at 5 µg/cm2 [5] | pest or weed control at 100 g/ha [6] | pest or weed control at 500 g/ha [6] | mortality at 100 ppm [7] | mortality at 100 g/ha [8] | mortality at 500 g/ha [8] |
| --- | --- | --- | --- | --- | --- | --- | --- | --- | --- | --- | --- | --- | --- |
| C[C@H](NC(=O)c1cc(Cl)cc(S(C)(=O)=O)c1)c1nc(C2CC2)nn1-c1ccc(C#N)cn1 [I-4] | 100% | 100% | 80 to 100% | 80 to 100% | 100% | 100% | 100% | 90% | 100% | 100% | 100% |  |  |
| CC(C)c1nc([C@H](C)NC(=O)c2cc(OC(F)(F)F)cc(C3CC3)c2)n(-c2ccc(C#N)cn2)n1 [I-23] | 100% | 100% | 80 to 100% | 80 to 100% |  | 100% |  | 100% | 80% |  | 100% | 90% |  |
| Cc1nc([C@H](C)NC(=O)c2cc(C(F)(F)F)n(C)n2)n(-c2ccc(C#N)cn2)n1 [II-7] | 100% | 100% | 80 to 100% | 80 to 100% |  | 100% | 100% | 100% | 100% | 100% | 100% |  |  |
| Cc1nc([C@H](C)NC(=O)c2cc(Cl)nn2C)n(-c2ccc(C#N)cn2)n1 [II-11] | 100% | 100% | 80 to 100% | 80 to 100% |  |  | 100% | 100% | 100% | 100% | 100% |  |  |
| C[C@H](NC(=O)c1cc(C#N)cc([S+](C)[O-])c1)c1ncnn1-c1ccc(C#N)cn1 (stereo partly drawn) [II-12] | 100% | 100% | 80 to 100% | 80 to 100% | 100% |  | 100% | 100% | 100% | 100% |  | 90% | 90% |
| C[C@H](NC(=O)c1cc(C(F)(F)F)cc(S(C)(=O)=O)c1)c1ncnn1-c1ncccn1 [II-13] | 100% | 100% | 80 to 100% | 80 to 100% | 100% |  | 100% | 100% | 100% | 100% |  | 90% | 100% |
| C[C@H](NC(=O)c1cc(C(F)(F)F)cc(S(C)(=O)=O)c1)c1ncnn1-c1ccc(Cl)cn1 [II-16] | 100% | 100% | 80 to 100% | 80 to 100% | 100% | 100% | 100% | 100% | 100% | 100% | 100% |  |  |
| C[C@H](NC(=O)c1cc(Cl)cc(S(=O)(=O)C(F)F)c1)c1ncnn1-c1ccc(C#N)cn1 [II-17] | 100% | 100% | 80 to 100% | 80 to 100% | 100% | 83% | 100% | 100% | 100% | 100% | 100% |  |  |
| C[C@H](NC(=O)c1cc(Cl)cc([S+]([O-])C(F)F)c1)c1ncnn1-c1ccc(C#N)cn1 (stereo partly drawn) [II-18, 3-chloro-N-{(1S)-1-[1-(5-cyanopyridin-2-yl)-1H-1,2,4-triazol-5-yl]ethyl}-5-[(difluoro-methyl)sulfinyl]benzamide] | 100% | 100% | 80 to 100% | 80 to 100% | 100% | 100% | 100% | 100% | 100% | 100% | 100% |  |  |
| C[C@H](NC(=O)c1cc(OC(F)(F)F)cc(C2CC2)c1)c1ncnn1-c1ccc(Cl)cn1 [II-23] | 100% | 100% | 80 to 100% | 80 to 100% |  | 100% | 100% | 100% | 100% | 100% |  | 100% | 100% |
| Cc1nc([C@H](C)NC(=O)c2cc(C(F)(F)F)n(C)n2)n(-c2ncccn2)n1 [II-25] | 100% | 100% | 80 to 100% | 80 to 100% |  |  |  | 100% |  | 100% |  |  | 90% |
| C[C@H](NC(=O)c1cc(C2CC2)cc(C(F)(F)F)c1)c1ncnn1-c1ccc(C#N)cn1 [II-26] | 100% | 100% | 80 to 100% | 80 to 100% | 100% | 100% | 100% | 90% | 100% | 100% |  | 90% | 100% |
| C[C@H](NC(=O)c1cc(C2CC2)cc(C(F)(F)F)c1)c1ncnn1-c1ccc(Cl)cn1 [II-27] | 100% | 100% | 80 to 100% | 80 to 100% |  | 100% | 100% | 100% | 100% | 100% | 100% |  |  |
| C[C@H](NC(=O)c1cc(C(F)(F)F)cc(S(=O)(=O)C2CC2)c1)c1ncnn1-c1ccc(C#N)cn1 [II-32] | 100% | 100% | 80 to 100% | 80 to 100% | 100% | 100% | 100% |  | 100% | 100% | 100% |  | 90% |
| Cc1nc([C@H](C)NC(=O)c2cc(OC(F)(F)F)cc(C3CC3)c2)n(-c2ccc(C#N)cn2)n1 [II-39] | 100% | 100% | 80 to 100% | 80 to 100% | 100% | 100% |  | 100% | 100% |  | 100% |  |  |
| C[C@H](NC(=O)c1cc(Cl)cc(S(=O)(=O)C(F)(F)F)c1)c1ncnn1-c1ncc(OC(F)F)cn1 [II-43] | 100% | 100% | 80 to 100% | 80 to 100% | 100% | 100% |  | 100% | 100% |  | 100% |  |  |
| Cc1nc([C@H](C)NC(=O)c2cc(C(F)(F)F)cc(S(C)(=O)=O)c2)n(-c2ccc(C#N)cn2)n1 [II-52] | 100% |  | 80 to 100% | 80 to 100% |  | 100% |  | 100% | 100% |  | 100% | 90% |  |
